Laboratory results from patent US11040028B2, “Penicinotam derivative, preparation method and use thereof” (OCEAN UNIVERSITY OF CHINA, priority 2017, dated 2021).

Experiments:
Format in all cases: cell-based
[1] = test system: human hepatic stellate cells LX-2; assay: Anti-fibrosis activity test: inhibition of proliferation of human hepatic stellate cells LX-2 (CCK-8); conditions: Homo sapiens, 48 h
Method in brief: (§1)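 Using CCK-8 colorimetry (450 nm), the study assessed growth inhibition after 48 h compound exposure; plating density was 2×10^4 cells/mL with 24 h attachment beforehand. IC50 was calculated from (1−Ai/Ao)×100%.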

[2] = test system: BHK-21 cells; assay: Anti-fibrosis activity test: inhibition of BHK-21 cell proliferation (CCK-8); conditions: Mesocricetus auratus, BHK-21, 48 h
Method in brief: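 Read-out: CCK-8 absorbance at 450 nm after 2 h, giving proliferation inhibition (1−Ai/Ao)×100% versus blank control, from which IC50 was derived. Cells had been treated with compounds for 48 h after 24 h adherence at 37° C. Pirfenidone served as positive control.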

[3] = test system: NF-κB; assay: Immunological activity test: inhibition of NF-κB activity; conditions: initial concentration of 30 μM; a/b isomers given as first/second symbol; read-out: IC50 (μM), inhibitory activity against NF-κB
Description: Main references for immunological activity test of the compounds of the present application includes: Vogl, S.; Atanasov, A. G.; Binder, M.; Bulusu, M.; Zehl, M.; Fakhrudin, N.; Heiss, E. H.; Picker, P.; Wawrosch, C.; Saukel, J.; Reznicek, G.; Urban, E.; Bochkov, V.; Dirsch, V. M.; Kopp, B. J. Evid-Based Complementary Alern. Med. 2013, ID 395316. Commercially available parthenolide was utilized as a positive control.
The ability of the compounds of the present application to inhibit NF-κB activity was tested at an initial concentration of 30 μM.
The assay data for the compounds of the present application were further analyzed to determine their IC50 values.

[4] = test system: human lung fibroblasts HFL1; assay: Anti-fibrosis activity test: inhibition of proliferation of human lung fibroblasts HFL1 (CCK-8); conditions: Homo sapiens, HFL1, 48 h
Method in brief: as §1

[5] = test system: cardiac fibroblast RAT-iCell-C002; assay: Anti-fibrosis activity test: inhibition of proliferation of cardiac fibroblast RAT-iCell-C002 (CCK-8); conditions: Cardiac fibroblast, 48 h
Method in brief: as §1

[6] = test system: human dermal fibroblasts CCC-ESF-1; assay: Anti-fibrosis activity test: inhibition of proliferation of human dermal fibroblasts CCC-ESF-1 (CCK-8); conditions: Fibroblast
Method in brief: as §1

[7] = test system: human embryonic lung fibroblast IMR-90; assay: Anti-fibrosis activity test: inhibition of proliferation of human embryonic lung fibroblast IMR-90 (CCK-8)
Method in brief: as §1

[8] = test system: human fibrosarcoma cells HT-1080; assay: Anti-fibrosis activity test: inhibition of proliferation of human fibrosarcoma cells HT-1080 (CCK-8); conditions: Homo sapiens, HT-1080, 48 h
Method in brief: as §1

[9] = human hepatic stellate cells LX-2, CCK-8, 48 hours
[10] = CCK-8, 48 hours after administration
[11] = human lung fibroblasts HFL1, CCK-8, 48 hours
[12] = cardiac fibroblast RAT-iCell-C002, CCK-8, 48 hours
[13] = human dermal fibroblasts CCC-ESF-1, CCK-8, 48 hours
[14] = human embryonic lung fibroblast IMR-90, CCK-8, 48 hours
[15] = human fibrosarcoma cells HT-1080, CCK-8, 48 hours

Row | Structure (SMILES) | IC50 [3] | IC50 [8, 15] | IC50 ([8]; HT-1080 cells, 48 h, CCK-8) | IC50 [1, 9] | IC50 [2, 10] | IC50 [4, 11] | IC50 [5, 12] | IC50 [6, 13] | IC50 [7, 14] | IC50 ([1]; LX-2, 48 h, LX-2 cells, CCK-8) | IC50 ([2]; 48 h, CCK-8) | IC50 ([4]; HFL1 cells, 48 h, CCK-8) | IC50 ([5]; RAT-iCell-C002 cells, CCK-8) | IC50 ([6]; Homo sapiens, CCC-ESF-1 cells, 48 h, CCK-8) | IC50 ([7]; Homo sapiens, IMR-90 cells, 48 h, CCK-8)
1 | CC(C)CCn1c2c(c(=O)c3ccccc31)C(=O)n1cccc1-2 [Compound 8a, 4-Isopentyl-9H-pyrrolizino[1,2-b]quinoline-9,10(4H)-dione] | 10 to 50 µM | 0.05 to 5 mM | – | 0.05 to 5 mM | 5 to 20 mM | 0.05 to 5 mM | 0.05 to 5 mM | 0.05 to 5 mM | 5 to 20 mM | – | – | – | – | – | –
2 | N#Cc1ccc(Cn2c3c(c(=O)c4cc(F)ccc42)C(=O)n2cccc2-3)cc1 [Compound 619a, 4-((7-Fluoro-9,10-dioxo-9H-pyrrolizino[1,2-b]quinolin-4(10H)-yl)methyl)benzonitrile] | 1 to 10 µM | 0.05 to 5 mM | – | 0.05 to 5 mM | 0.05 to 5 mM | 0.05 to 5 mM | 0.05 to 5 mM | < 0.05 mM | 0.05 to 5 mM | – | – | – | – | – | –
3 | N#Cc1ccc2nc3c(c(OCc4ccc(F)cc4)c2c1)C(=O)n1cccc1-3 [Compound 624b, 9-((4-fluorobenzyl)oxy)-10-oxo-10H-pyrrolizino[1,2-b]quinoline-7-carbonitrile] | 1 to 10 µM | 0.05 to 5 mM | – | 5 to 20 mM | 0.05 to 5 mM | < 0.05 mM | 0.05 to 5 mM | 0.05 to 5 mM | 0.05 to 5 mM | – | – | – | – | – | –
4 | N#Cc1ccc2c(=O)c3c(n(Cc4ccc(F)cc4)c2c1)-c1cccn1C3=O [Compound 514a, 4-(4-Fluorobenzyl)-9,10-dioxo-4,10-dihydro-9H-pyrrolizino[1,2-b]quinoline-6-carbonitrile] | 1 to 10 µM | 0.05 to 5 mM | – | 0.05 to 5 mM | < 0.05 mM | 0.05 to 5 mM | 0.05 to 5 mM | 0.05 to 5 mM | 0.05 to 5 mM | – | – | – | – | – | –
5 | N#Cc1ccc2c(c1)c(=O)c1c(n2Cc2ccc(C(F)(F)F)cc2)-c2cccn2C1=O [Compound 627a, 9,10-Dioxo-4-(4-(trifluoromethyl)benzyl)-4,10-dihydro-9H-pyrrolizino[1,2-b]quinoline-7-carbonitrile] | 1 to 10 µM | 0.05 to 5 mM | – | 0.05 to 5 mM | < 0.05 mM | 0.05 to 5 mM | 0.05 to 5 mM | 0.05 to 5 mM | 0.05 to 5 mM | – | – | – | – | – | –
6 | O=C1c2c(nc3cc(C(F)(F)F)ccc3c2OCc2ccc(Cl)cc2)-c2cccn21 [Compound 544b, 9-((4-chlorobenzyl)oxy)-6-(trifluoromethyl)-10H-pyrrolizino[1,2-b]quinolin-10-one] | 1 to 10 µM | 0.05 to 5 mM | – | 0.05 to 5 mM | 0.05 to 5 mM | 0.05 to 5 mM | 0.05 to 5 mM | 0.05 to 5 mM | 0.05 to 5 mM | – | – | – | – | – | –
7 | O=C1c2c(nc3ccc(F)cc3c2OCc2ccc(F)cc2)-c2cccn21 [Compound 617b, 7-fluoro-9-((4-fluorobenzyl)oxy)-10H-pyrrolizino[1,2-b]quinolin-10-one] | 1 to 10 µM | 0.05 to 5 mM | – | 0.05 to 5 mM | 0.05 to 5 mM | 0.05 to 5 mM | 0.05 to 5 mM | 0.05 to 5 mM | 0.05 to 5 mM | – | – | – | – | – | –
8 | N#Cc1ccc(COc2c3c(nc4ccc(F)cc24)-c2cccn2C3=O)cc1 [Compound 619b, 4-(((7-fluoro-10-oxo-10H-pyrrolizino[1,2-b]quinolin-9-yl)oxy)methyl)benzonitrile] | 1 to 10 µM | 0.05 to 5 mM | – | 0.05 to 5 mM | 0.05 to 5 mM | 0.05 to 5 mM | 0.05 to 5 mM | < 0.05 mM | 0.05 to 5 mM | – | – | – | – | – | –
9 | N#Cc1ccc2c(c1)c(=O)c1c(n2Cc2ccc(Cl)cc2)-c2cccn2C1=O [Compound 625a, 4-(4-Chlorobenzyl)-9,10-dioxo-4,10-dihydro-9H-pyrrolizino[1,2-b]quinoline-7-carbonitrile] | 1 to 10 µM | 0.05 to 5 mM | – | 0.05 to 5 mM | 0.05 to 5 mM | 0.05 to 5 mM | 0.05 to 5 mM | 0.05 to 5 mM | 0.05 to 5 mM | – | – | – | – | – | –
10 | CC(C)CCOc1c2c(nc3ccccc13)-c1cccn1C2=O [Compound 8b, 9-(isopentyloxy)-10H-pyrrolizino[1,2-b]quinolin-10-one] | 10 to 50 µM | 0.05 to 5 mM | – | 0.05 to 5 mM | 0.05 to 5 mM | 0.05 to 5 mM | 0.05 to 5 mM | 0.05 to 5 mM | 0.05 to 5 mM | – | – | – | – | – | –
11 | N#Cc1ccc(COc2c3c(nc4ccc(C#N)cc24)-c2cccn2C3=O)cc1 [Compound 626b, 9-((4-cyanobenzyl)oxy)-10-oxo-10H-pyrrolizino[1,2-b]quinoline-7-carbonitrile] | 1 to 10 µM | 0.05 to 5 mM | – | 0.05 to 5 mM | 0.05 to 5 mM | 0.05 to 5 mM | 0.05 to 5 mM | < 0.05 mM | 0.05 to 5 mM | – | – | – | – | – | –
12 | O=C1c2c(n(Cc3cccc(Cl)c3)c3cc(C(F)(F)F)ccc3c2=O)-c2cccn21 [Compound 545a, 4-(3-Chlorobenzyl)-6-(trifluoromethyl)-9H-pyrrolizino[1,2-b]quinoline-9,10(4H)-dione] | 1 to 10 µM | 5 to 20 mM | – | 0.05 to 5 mM | 0.05 to 5 mM | 0.05 to 5 mM | 0.05 to 5 mM | 0.05 to 5 mM | 0.05 to 5 mM | – | – | – | – | – | –
13 | N#Cc1ccc2c(c1)c(=O)c1c(n2Cc2ccc(-c3ccccc3C#N)cc2)-c2cccn2C1=O [Compound 629a, 4-((2′-Cyano-[1,1′-biphenyl]-4-yl)methyl)-9,10-dioxo-4,10-dihydro-9H-pyrrolizino[1,2-b]quinoline-7-carbonitrile] | 1 to 10 µM | 0.05 to 5 mM | – | 0.05 to 5 mM | < 0.05 mM | 0.05 to 5 mM | 0.05 to 5 mM | < 0.05 mM | 0.05 to 5 mM | – | – | – | – | – | –

More lines, main results first:

Row | IC50 [3] | IC50 [8, 15] | IC50 ([8]; HT-1080 cells, 48 h, CCK-8) | Structure (SMILES) | IC50 [1, 9] | IC50 [2, 10] | IC50 [4, 11] | IC50 [5, 12] | IC50 [6, 13] | IC50 [7, 14] | IC50 ([1]; LX-2, 48 h, LX-2 cells, CCK-8) | IC50 ([2]; 48 h, CCK-8) | IC50 ([4]; HFL1 cells, 48 h, CCK-8) | IC50 ([5]; RAT-iCell-C002 cells, CCK-8) | IC50 ([6]; Homo sapiens, CCC-ESF-1 cells, 48 h, CCK-8) | IC50 ([7]; Homo sapiens, IMR-90 cells, 48 h, CCK-8)
14 | 1 to 10 µM | 0.05 to 5 mM | – | O=C1c2c(n(Cc3cc(C(F)(F)F)cc(C(F)(F)F)c3)c3ccc(F)cc3c2=O)-c2cccn21 [Compound 623a, 4-(3,5-Bis(trifluoromethyl)benzyl)-7-fluoro-9H-pyrrolizino[1,2-b]quinoline-9,10(4H)-dione] | 0.05 to 5 mM | < 0.05 mM | 0.05 to 5 mM | 0.05 to 5 mM | < 0.05 mM | 0.05 to 5 mM | – | – | – | – | – | –
15 | 1 to 10 µM | 0.05 to 5 mM | – | O=C1c2c(n(Cc3ccc(C(F)(F)F)cc3)c3ccc(F)cc3c2=O)-c2cccn21 [Compound 620a, 7-Fluoro-4-(4-(trifluoromethyl)benzyl)-9H-pyrrolizino[1,2-b]quinoline-9,10(4H)-dione] | 0.05 to 5 mM | < 0.05 mM | 0.05 to 5 mM | 0.05 to 5 mM | 5 to 20 mM | 0.05 to 5 mM | – | – | – | – | – | –
16 | 1 to 10 µM | 0.05 to 5 mM | – | O=C1c2c(nc3ccccc3c2Oc2ccc(Cl)cc2)-c2cccn21 [Compound 34b, 9-(4-chlorophenoxy)-10H-pyrrolizino[1,2-b]quinolin-10-one] | 0.05 to 5 mM | 0.05 to 5 mM | 0.05 to 5 mM | 0.05 to 5 mM | < 0.05 mM | 0.05 to 5 mM | – | – | – | – | – | –
17 | 0.1 to 1 µM | 0.05 to 5 mM | – | O=C1c2c(nc3cc(C(F)(F)F)ccc3c2OCc2ccccc2Cl)-c2cccn21 [Compound 546b, 9-((2-chlorobenzyl)oxy)-6-(trifluoromethyl)-10H-pyrrolizino[1,2-b]quinolin-10-one] | 0.05 to 5 mM | 0.05 to 5 mM | 0.05 to 5 mM | 0.05 to 5 mM | 0.05 to 5 mM | 0.05 to 5 mM | – | – | – | – | – | –
18 | 0.001 to 0.1 µM | – | 0.05 to 5 mM | Cc1ccc2c(O)c3c(nc2c1)-c1cccn1C3=O [Compound 714b, 9-hydroxy-6-methyl-10H-pyrrolizino[1,2-b]quinolin-10-one] | – | – | – | – | – | – | 0.05 to 5 mM | 0.05 to 5 mM | 0.05 to 5 mM | 0.05 to 5 mM | 0.05 to 5 mM | 0.05 to 5 mM
19 | 1 to 10 µM | 0.05 to 5 mM | – | O=C1c2c(nc3ccc(F)cc3c2OCc2ccc(Cl)cc2F)-c2cccn21 [Compound 621b, 9-((4-chloro-2-fluorobenzyl)oxy)-7-fluoro-10H-pyrrolizino[1,2-b]quinolin-10-one] | 0.05 to 5 mM | 0.05 to 5 mM | 0.05 to 5 mM | 0.05 to 5 mM | 0.05 to 5 mM | 0.05 to 5 mM | – | – | – | – | – | –
